Measurements from US4962155A (City of Hope, priority 1987, dated 1990).
Where two headings read alike, the source gives them in different places.

What was measured:
insulin receptor kinase = settings: literature, cited from earlier work
[1] = target: T1, human insulin receptor kinase (Homo sapiens, UniProt P06213); experiment: Kinase assay: phosphorylation of exogenous src-related peptide by purified insulin receptor; format: biochemical; settings: for activation of the insulin receptor kinase over the control: 1 μM basic protein or polyamine, preincubated 25° C. 1 hour, FIG. 1; for reactivation of receptor preparations that lost kinase activity or insulin dependency: aged preparations stored at -70° C.; for concentrations at which kinase activity is stimulated: dose response
T1 construct: from tissue; host or cells: human placenta (Triton X-100 solubilized membranes; wheat germ agglutinin and insulin-Sepharose chromatography)
Method: The substrate used is a synthetic peptide (src-related peptide) which resembles the amino acid sequence around the site of phosphorylation of the tyrosine residue in the Rous sarcoma virus transforming protein, pp60^src, with the sequence ([…], Casnellie, J. E., et al., Proc. Natl. Acad. Sci. USA 79:282 (1982).
The phosphorylation assays were carried out at 25° C. for 40 minutes in 30 ul of 50 mM Tris-HCl buffer (pH 7.4) containing 1 mM of the src-related peptide, 2 mM MnCl2, 15 mM MgCl2, 0.1% Triton X-100, and 40 μM [γ-^32 ]ATP (12,000 cpm/pmole). The reaction was terminated by adding 50 μl of 5% trichloroacetic acid (TCA) and 20 μl of bovine serum albumin (BSA) (10 mg/ml), the resulting solution was then incubated at 0° C. for 30 minutes, and the proteins were precipitated by centrifugation. Aliquots (35 μl) of the resulting supernatant were spotted on phosphocellulose paper (Whatman, P-81). The papers were extensively washed in 75 mM phosphoric acid. Duplicates of the papers were prepared from each reaction mixture and ^32 P incorporated into the src-related peptide was counted using a liquid scintillation counter.

[2] = system: β subunit of the insulin receptor and calmodulin; settings: rat hepatocyte insulin receptor preparations, absence of insulin; literature; cited from earlier work
[3] = target: T2, β and α subunits of the insulin receptor (Homo sapiens, UniProt P06213); experiment: Phosphoamino acid analysis of phosphorylated β and α subunits by paper electrophoresis; format: biochemical
T2 construct: from tissue; host or cells: human placenta (Triton X-100 solubilized membranes; wheat germ agglutinin and insulin-Sepharose chromatography)
Method: Chem 254:1206 (1984), and hydrolyzing the peptides in 2N HCl for 2 hours at 110° C. The materials were then analyzed by paper electrophoresis (pH 3.5, 2000 V, 1 hour) and autoradiography.
Lanes 1-4 of FIG. 4B contain amounts of hydrolysates equal to 50% of the starting materials from the FIG. 4A gel. […] Other radioactive samples were electrophoresed together with these three phosphoamino acids. Ninhydrin spots for those are not shown. X indicates the origin of the samples.

[4] = target: T3, insulin receptor β subunit (Homo sapiens, UniProt P06213); experiment: Phosphorylation (autophosphorylation) of insulin receptor subunits, SDS-PAGE and autoradiography; format: biochemical
T3 construct: from tissue; host or cells: human placenta (Triton X-100 solubilized membranes; wheat germ agglutinin and insulin-Sepharose chromatography)
Method: The β subunit of the purified receptor was phosphorylated in the same manner as described above for the exogenous substrate phosphorylation. The reaction was terminated by adding 3-times concentrated Laemmli's sample buffer followed by boiling for 5 minutes. SDS-polyacrylamide gel electrophoresis was then performed under reducing conditions as described by Laemmli, U. K., Nature 227:680 (1970). The gels were stained with silver, dried, and autoradiographed.
After the kinase reaction was terminated by adding TCA and BSA as described in the above procedures, the proteins containing the insulin receptor were precipitated by centrifugation. The precipitated proteins were then subjected to SDS polyacrylamide gel electrophoresis (7.5% gel) under reducing conditions. The gels were stained with silver, dried, and autoradiographed for 30 hours using a Kodak XAR-5 film and an intensifying screen.
The insulin receptor was then phosphorylated according to the procedures described above. After the phosphorylation, the receptors were analyzed by SDS polyacrylamide gel electrophoresis (10% gel) under non-reducing conditions. The gel was dried and autoradiographed for 45 minutes at -70° C. by exposing the gel to a Kodak XAR-5 film with an intensifying screen.

For `O[C@H](CS)[C@H](O)CS` (racemic) [DTT, dithiothreitol, reference compound], the “activation of the insulin receptor kinase” value (insulin receptor kinase) is listed as “activate the insulin receptor kinase”, the “activation of the insulin receptor kinase” value (insulin receptor kinase; listed as dithiothreitol (DTT)) is listed as “activates the insulin receptor kinase” and the “Kinase activity” value ([1]; preincubation with 0.1 mM DTT) is listed as 0.059 pmol/min. For the same compound, the “Kinase activity” value ([1]; preincubation with 0.5 mM DTT) was 0.083 pmol/min, the fold induction at 100 µM ([1]; read-out: Kinase Activity -fold, preincubation with 0.1 mM DTT, relative to no addition) was 9.8 and the fold induction at 500 µM ([1]; read-out: Kinase Activity -fold, preincubation with 0.5 mM DTT, relative to no addition) was 13.8.
In the case of `OO` [H2 O2, hydrogen peroxide], the “activation of the insulin receptor kinase” value (insulin receptor kinase) is listed as “activate the insulin receptor kinase”.
In the case of `[Na+].[Na+].[Na+].[O]=[V]([O-])([O-])[O-]` [vanadate, sodium orthovanadate], the “activation of the insulin receptor kinase” value (insulin receptor kinase) is given as “activate the insulin receptor kinase”.
In the case of concanavalin A, the “activation of the insulin receptor kinase” value (insulin receptor kinase) is listed as “activate the insulin receptor kinase”.
For histone Hf2b [reference compound], the “stimulation of phosphorylation of the β subunit of the insulin receptor (and calmodulin)” value (from here on “stimulation … (and calmodulin)”) [2] is listed as “appeared to stimulate the phosphorylation of both the β subunit of the insulin receptor and calmodulin”.
In the case of insulin, the “activation of the insulin receptor kinase” value (insulin receptor kinase) is given as “activate the insulin receptor kinase”.
For poly L-arginine, the “effect on kinase activity in dose response” value ([1]; all concentrations examined, FIG. 2) is given as “inhibited the kinase activity of the receptor at any of the concentrations examined” and the “stimulation … (and calmodulin)” value [2] is given as “effective to stimulate the phosphorylation of the β subunit of the insulin receptor”.
In the case of poly L-lysine, the “kinetic analysis (Vmax, KM), Lineweaver-Burk plots” value ([1]; 0.24 μM poly L-lysine, varying src-related peptide, FIGS. 6B, 6C) is reported as “increasing Vmax without significantly changing KM”, the “activation of the insulin receptor kinase over the control” value [1] is reported as “approximately 5 fold” and the “stimulative effect on kinase activity” value ([1]; 100 μM poly L-lysine, FIG. 3A) is reported as “can no longer be seen”. The “reactivation of receptor preparations that lost kinase activity or insulin dependency” value [1] was “can activate certain old insulin receptor preparations”, the “reactivation of receptor preparations that lost kinase activity or insulin dependency” value ([1]; listed as Poly L-lysine) was “able to restore the kinase activity of insulin receptor preparation that have lost some, but not all, kinase activity” and the “concentrations at which kinase activity is stimulated” value ([1]; FIG. 2) was 0.1 to 1.0 µM. The “kinase activation compared with activation by insulin” value ([1]; optimum poly L-lysine concentrations vs 1 μM insulin, FIG. 3A) was “much greater than the kinase activation by insulin”, the “Kinase activity” value ([1]; preincubation with 0.24 μM PLL) was 0.234 pmol/min and the “Kinase Activity -fold” value ([1]; preincubation with 0.24 μM PLL, relative to no addition) was 39 fold. The Kinase activity ([1]; receptor preparation A, stored 36 Mo. at -70° C., 1 μM insulin or 0.24 μM poly L-lysine) was 0.002 pmol/min, the Kinase activity ([1]; receptor preparation B, stored 28 Mo. at -70° C., 1 μM insulin or 0.24 μM poly L-lysine) was 0.174 pmol/min and the Kinase activity ([1]; receptor preparation C, stored 15 Mo. at -70° C., 1 μM insulin or 0.24 μM poly L-lysine) was 0.229 pmol/min. The Kinase activity ([1]; receptor preparation D, stored 3 Mo. at -70° C., 1 μM insulin or 0.24 μM poly L-lysine) was 2.30 pmol/min, the Kinase activity ([1]; receptor preparation E, stored <3 Days, 1 μM insulin or 0.24 μM poly L-lysine) was 1.13 pmol/min and the “kinase activity after poly L-lysine treatment” value ([1]; receptor preparations older than 36 months (data not shown)) was “no kinase activity”. The “stimulation … (and calmodulin)” value [2] was “appeared to stimulate the phosphorylation of both the β subunit of the insulin receptor and calmodulin”, the “β subunit phosphorylation, radioactivity of hydrolysate” value ([3]; 0.25 μM poly L-lysine, 20% of the original material, FIG. 4B lane 6) was 1700 cpm and the “α subunit phosphorylation, radioactivity of hydrolysate” value ([3]; 0.25 μM poly L-lysine, hydrolysate equal to 50% of starting material, FIG. 4B lane 4) was 1000 cpm. The “β subunit phosphorylation, radioactivity of hydrolysate” value ([3]; 1 μM insulin or 0.25 μM poly L-lysine, hydrolysate equal to 50% of starting material, FIG. 4B) was 4400 cpm, the “phosphoamino acid composition of phosphorylated β and α subunits” value ([3]; FIG. 4B) was “tyrosine was found to be a major amino acid whose phosphorylation was stimulated” and the “phosphorylation of insulin receptor subunits” value ([4]; 0.25 μM poly L-lysine, non-reducing SDS-PAGE, FIG. 4A lane 3) was “stimulates phosphorylation of α and β1 subunits in addition to the β subunit”. For the same compound, the “stimulation of β subunit autophosphorylation compared with insulin” value ([4]; 0.001-10 μM poly L-lysine, with or without 1 μM insulin, FIG. 3B) was “greater than that of insulin”.
In the case of poly L-ornithine, the “activation of the insulin receptor kinase over the control” value [1] is listed as “approximately 4 fold”, the “concentrations at which kinase activity is stimulated” value ([1]; FIG. 2) is listed as 0.1 to 1.0 µM and the “stimulation … (and calmodulin)” value [2] is listed as “effective to stimulate the phosphorylation of the β subunit of the insulin receptor”.
For protamine sulfate, the “stimulatory effect on kinase activity relative to basal” value ([1]; 10 μM, FIG. 2) is listed as “approximately two-fold” and the “stimulation … (and calmodulin)” value [2] is listed as “appeared to stimulate the phosphorylation of both the β subunit of the insulin receptor and calmodulin”.
